The test system of series [1] is human chondrosarcoma Sarc. The experiment in a line: Trans-endothelial migration through HUVEC monolayer (xCELLigence RTCA), Sarc. The series is classed as cell-based. Particulars: 10 nM, 5 hrs. On the procedure: FIG. 9 At the concentration of 10 nM the retro-inverso peptide RI-3 affects trans-endothelial migration of human chondrosarcoma Sarc (A), melanoma A375 (B), ovarian carcinoma SKOV-3 (C) cells, or THP1 monocytes (D), as monitored by the xCELLigence RTCA system (Example 9).
The entry of tumor cells into bloodstream is one of the earliest events of the metastatic process. The ability of RI-3 to affect trans-endothelial migration of human chondrosarcoma Sarc (A) melanoma A375 (B), ovarian carcinoma SKOV-3 (C) cells, or THP1 monocytes (D) was monitored by the xCELLigence RTCA system. Human Umbilical Vein Endothelial Cells (HUVEC) (1×10^4 cells/well) suspended in growth medium, were allowed to grow for 20-25 hrs until they form a confluent monolayer, prior to seeding Sarc, A375, SKOV-3, or THP-1 cells (1×10^4 cells/well) in growth medium in the absence (None) or in the presence of 10 nM RI-3. The experiments were performed twice in quadruplicate. When cells cross the endothelial monolayer, there is a drop in electrical resistance which is monitored in real-time for 5 hrs as the cell index changes due to the rupture of endothelial monolayer. All cell lines were able to reduce endothelial monolayer integrity. The addition of 10 nM RI-3 inhibited the capability of Sarc, A375, SKOV-3, and THP-1 cells to disrupt endothelial monolayers by 17%, 22%, 58%, and 36% respectively.

The subject of a further series is human Sarc cells. Nature of the series: Human Sarc cell tumors in the flank of CD1 nude mice. The series is classed as in vivo. Particulars: 6 mg/Kg i.p. every day for 10 days. How it is done:
FIG. 11 The intraperitoneal (i.p.) administration of 6 mg/Kg of the retro-inverso peptide RI-3 every day for 10 days reduces in vivo tumor growth and vascular infiltration by human chondrosarcoma Sarc cells in nude mice. (A) Time-dependent average of treated and control mice. (B) Tumor volumes measured at different time points. (C) Tumors excised after 10 days. (D) CD31 immuno-staining of formalin fixed paraffin sections of the excised tumors. (E) Counts of vascular channels harboring red blood cells on CD31 immuno-stained sections. (F) Quantification of Circulating Tumor Cells (CTCs). (Example 11)
Ten six-eight week old, CD1 female nude mice received the injection of human Sarc cells as a single-cell suspension (1×10^6 cells in 100 μl PBS, 96% viability) into the right flank. Five animals received i.p-administration of 6 mg/Kg RI-3 every day for 10 days, and five received injections of vehicle only (CTRL). A. Time-dependent average weight was monitored every two days. B. Tumor volumes measured at different time points with a caliper, using the formula: ½×(width)^2×length (mm). After 10 days, blood samples (˜500 μL/mouse) from the retroorbital venous plexus of mice were collected and processed for determination of Circulating Tumor Cells (CTC)s. Then, animals were sacrificed and the excised tumors (C) were fixed in buffered formalin and processed for paraffin sectioning. Tumor vascularization was assessed by counting vascular channels harbouring red blood cells on CD31 immuno-stained sections (D) in 5 randomly chosen fields per section, in at least two sections per tumor at ×200 (E). To quantify CTCs, DNA from nucleated cells of murine blood samples was purified and quantitated by Real-Time PCR using primers targeting human Alu-sequences. Number of CTCs was calculated by comparing the obtained amplification curves with others generated in spiking experiments, which were included in every run (F).
Tumor volumes of vehicle- and RI-3-treated mice were 445+/−285 and 112+/−41 mm^3, respectively, with p<0.05 (B). After 10 days, animals were sacrificed and tumors excised (C). According with the ability of RI-3 to prevent in vitro formation of a capillary network, the intratumoral microvessel density was reduced in tumors from animals treated with RI-3 as compared to those treated with vehicle alone (D-E).

Series [2] has as its system primary ovarian cancer cells derived from a tumor excision (OV-53). Nature of the series: Matrigel invasion (xCELLigence RTCA), OV-53. Format: cell-based, human. To be noted: 10 nM, 20 hrs. On the procedure: (§1) FIG. 8 At the concentration of 10 nM the retro-inverso peptide RI-3 prevents matrigel invasion of tumor cells from human osteosarcoma Saos-2 (A), chondrosarcoma Sarc (B), melanoma A375 (C), metastatic melanoma A375M6 (D), ovarian carcinoma SKOV-3 cells (E), or primary ovarian cancer cells derived from a tumor excision (OV-53) (F), as monitored in real-time for 20 hr as changes in cell index by the xCELLigence RTCA system (Example 8).
(§2) To investigate the ability of RI-3 to prevents matrigel invasion of tumor cells form different tissue origins, human osteosarcoma Saos-2 (A), chondrosarcoma Sarc (B) melanoma A375 (C), metastatic melanoma A375M6 (D), ovarian carcinoma SKOV-3 cells (E) or primary ovarian cancer cells derived from a tumor excision (OV-53) (F) were seeded on polymerized matrigel and allowed to invade matrigel in the absence (None) or in the presence of 10 nM RI-3. Cell invasion was monitored in real-time for 20 hrs as changes in cell index by the xCELLigence RTCA system. Data represent mean±SD from quadruplicate experiments. All cell lines were able to cross matrigel, although to a different extent. In all case RI-3 reduced matrigel invasion by about 30%, 31%, 64%, 57%, 53% and 68%, of Saos-2, Sarc, A375, A375M6, SKOV-3 and OV-53 cells, respectively.

For series [3], the system named is metastatic melanoma A375M6. Nature of the series: Matrigel invasion (xCELLigence RTCA), A375M6. Format: cell-based, human. Particulars: 10 nM, 20 hrs. On the procedure: as §1, §2
Another series concerns the target T1, FPR1 (Homo sapiens, UniProt P21462).
T1 construct: expressed in transfected cells; host or cells: rat basophilic leukaemia RBL-2H3/ETFR cells
T1 sequence (P21462 1-350): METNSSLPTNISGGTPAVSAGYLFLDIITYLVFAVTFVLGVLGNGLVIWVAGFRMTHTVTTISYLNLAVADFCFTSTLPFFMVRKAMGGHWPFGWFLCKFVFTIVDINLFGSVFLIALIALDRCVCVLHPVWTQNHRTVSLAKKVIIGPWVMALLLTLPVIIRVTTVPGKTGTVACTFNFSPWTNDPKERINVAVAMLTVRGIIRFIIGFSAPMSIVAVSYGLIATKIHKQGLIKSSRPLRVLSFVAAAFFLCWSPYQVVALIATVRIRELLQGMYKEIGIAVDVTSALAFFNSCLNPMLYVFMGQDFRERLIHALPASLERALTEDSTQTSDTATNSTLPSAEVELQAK
Nature of the series: Agonist-dependent FPR1 internalization in RBL-2H3/ETFR cells (microscopy). The series is classed as cell-based. Particulars: binding experiments at 37° C., FITC-fMLF. On the procedure: Cell-associated fluorescence was measured using a fluorescence plate reader. The results are depicted in FIG. 3. […] To evaluate the effect of RI-3 on agonist-dependent FPR1 internalization, binding experiments were performed at 37° C. and cells were visualized using a Zeiss 510 Meta LSM microscope. Original magnifications: 630×. Scale bar: 10 μm.

The next series deals with melanoma A375. The experiment in a line: Matrigel invasion (xCELLigence RTCA), A375. Format: cell-based, human. Particulars: 10 nM, 20 hrs. How it is done: as §1, §2

Structures are written as SMILES. Non-standard residues stand in square brackets, D forms with d. Residues, ends and D or L forms follow the SMILES beside them. Aib = CC(C)(N)C(=O)O

With `CC(=O)N[C@H](Cc1ccc(O)cc1)C(=O)N[C@H](CCCNC(=N)N)C(=O)NC(C)(C)C(=O)N[C@H](CCCNC(=N)N)C(N)=O` [RI-3, Ac-(D)-Tyr-(D)-Arg-Aib-(D)-Arg-NH2] (Ac-[dY][dR][Aib][dR]-NH2), the “inhibition of the capability to disrupt endothelial monolayers” value in series [1] stood at 17%. In the series with human Sarc cells, the body weight result is “without clear changes in body weight”, the “mice with CTCs in blood samples” value is reported as 3/5, the “reduction of the number of circulating sarcoma cells in murine blood samples” value stood at 74.5% and the signs of toxicity result is “no signs of toxicity”. In the series on human Sarc cells, the tumor volume is on record as 112+/−41 mm^3. In the series with human Sarc cells (blood after 10 days), the “Circulating Tumor Cells in blood” value is 2.4+/−2 CTCs/mL. In the series on human Sarc cells (vs vehicle), the “intratumoral microvessel density (CD31)” value was “reduced”. Also, in series [2], the “reduction of matrigel invasion” value was ~68%. Moreover, in series [3], the “reduction of matrigel invasion” value is given as ~57%. The “agonist-dependent FPR1 internalization” value at FPR1 was “prevented agonist-dependent FPR1 internalization”. In the series with melanoma A375, the “reduction of matrigel invasion” value was ~64%.

The values above are taken from US10836792B2, “Retro-inverso peptide inhibitors of cell migration, extracellular matrix and endothelial invasion by tumor cells” (ISTITUTO NAZIONALE TUMORI IRCCS “FONDAZIONE G. PASCALE”, priority 2016, dated 2020).
